Measured values reported in patent US20120213707A1, “Riboflavin Based Aerosol and Use as Placebo in Trials” (MPEX PHARMACEUTICALS, INC., priority 2009, published 2012).

Assays:
[1] = Toxicokinetics in dogs: plasma riboflavin 5′-phosphate and metabolite riboflavin after aerosolized doses for 28 days; type: in vivo, Dog (Canis familiaris)
Protocol: (§1) Duration of treatment: 28 days. Test system: Dog (Canis familiaris); strain: Beagle.
A series of 9 blood samples (approximately 2.0 mL each) were removed from each dog on each of Days 1 and 28 of the treatment period. For this purpose, each dog was bled by venipuncture and the samples were collected into tubes containing the anticoagulant, Sodium Heparin. Tubes were placed immediately on wet ice pending processing within 30 minutes of collection. On each occasion, samples were collected at pre-dose, immediately post exposure (IPD), 15 and 30 minutes, 1, 2, 4, 6 and 24 hours post exposure. Following collection, the samples were centrifuged (approximately 4° C.) and the resulting plasma was recovered and stored frozen at ITR (approximately −20° C.) in labeled tubes protected from light pending shipment (on dry ice).

[2] = test system: Beagle dogs; test: 28-day aerosolized liquid inhalation (oronasal) toxicity study in Beagle dogs; type: in vivo
From the text: The objective of the study was to determine the toxicity and toxicokinetic profile of the test article, Riboflavin 5′-phosphate, following inhalation (oronasal) administration to dogs for 28 consecutive days.
Test article: riboflavin 5′-phosphate sodium salt hydrate; alternate identity: vitamin B2 phosphate; description: yellow crystals; potency: 74%. Vehicle article: saline (0.9% (w/v) NaCl for injection); description: clear colorless solution. Exposure method: inhalation by oronasal face mask exposure.
The test (0.5 mg/mL, 2.0 mg/mL, 5.0 mg/mL) and/or vehicle control formulations (0 mg/mL) for each group were prepared fresh daily on each day by dissolving the test article in saline. All prepared test article formulations were protected from light and kept at room temperature (RT).
as §1
The aerosol was produced by metering the flow of the test and control article formulations to 3 clinical nebulizers (Sidestream). The aerosol produced was discharged through a 40 mm diameter tube into a flow-past inhalation exposure system. The airflow rate through the exposure system was monitored and recorded manually during the aerosol generation. Airflow to the exposure system was controlled by the absolute volume of air supplying the aerosol generators using variable area flow meters. Control of the aerosol exhaust flow from the animal exposure system was achieved using an exhaust valve. The system provided a minimum of 6 L/min of aerosol to each animal exposure position and the inlet and outlet airflows were balanced to ensure that there was no dilution of the generated aerosol by air drawn from the environment. Any minor variations in flow were buffered by a balloon reservoir. An equal delivery of aerosol to each exposure position was achieved by employing a distribution network that was identical for each individual exposure position attached to the system.
Mortality checks were performed once daily during the acclimation and pre-treatment periods, and twice a day (am and pm) during the treatment period of the study.
Cage-side clinical signs (ill health, behavioral changes etc.) were recorded for all animals once daily during the acclimation period and twice daily (pre-exposure and post-exposure) during the treatment period except on detailed clinical examination days. A detailed clinical examination of each dog was performed (replacing a cage-side clinical sign observation in the morning) at least once pretreatment, one day prior to Day 1, weekly during the treatment period and before necropsy.
Body weights were recorded for all animals at least once prior to group assignment, and approximately one week prior to initiation of treatment. Body weights were recorded for all animals one day prior to Day 1 and weekly during the treatment period, as well as terminally.
Individual daily food intake was recorded for all animals during the last week of the pretreatment period and throughout the treatment period.
Funduscopic (indirect ophthalmoscopy) and biomicroscopic (slit lamp) examinations were performed for all animals, once during the pre-treatment period and during Week 4 of the treatment period.
Electrocardiograms (limb leads I, II and III, and augmented leads aVR, aVL and aVF) were obtained for all dogs once during the pre-treatment period and at least 90 minutes (between 90-120 minutes) postexposure on Days 1 and during Week 4 of the treatment period. In addition, indirect blood pressure was measured on the same occasions as ECG using a tail cuff. The tracings were assessed for gross changes indicative of cardiac electrical dysfunction and the potential presence of abnormalities involving heart rate (lead II), sinus and atrioventricular rhythm or conductivity were determined. Heart rate, PR interval, QRS duration, QT and QTc intervals values were tabulated for incorporation into the study report. […]

Cc1cc2nc3c(=O)[nH]c(=O)nc-3n(C[C@H](O)[C@H](O)[C@H](O)COP(=O)(O)O)c2cc1C [riboflavin 5′-phosphate]
accumulation following repeated dosing ([1]; 28 days): no accumulation | gender related difference of riboflavin plasma exposure ([1]; Day 1, single administration): no observed apparent gender related difference | dose dependence of riboflavin plasma exposures (Cmax and AUC(0-T)) ([1]; both sexes, Day 1): increased as a function of the administered doses | dose dependence of riboflavin plasma exposures (Cmax and AUC(0-T)) ([1]; both sexes, Day 28): increased as a function of the administered doses | dose proportionality of riboflavin exposures (Cmax and AUC(0-T)) ([1]; both sexes, overall): appeared to be dose proportional | gender difference in riboflavin exposure ([1]; overall): no gender difference in riboflavin exposure | riboflavin 5′-phosphate concentrations in plasma of treated animals ([1]; single or repeated exposures): detected in only a single treated animal | No Observed Effect Level (NOEL) ([2]; Beagle dogs, oronasal inhalation up to 60 minutes/day, 28 consecutive days, high-dose group): 1.341 mg/kg/day | tolerability ([2]; beagle dogs, inhalation exposure 28 days): well tolerated | blood pressure ([2]; dog, in vivo): no changes in blood pressure that were considered related to treatment | clinical chemistry ([2]; dog, in vivo): no changes noted in clinical chemistry parameters that were considered to be treatment-related | clinical signs ([2]; dog, in vivo): no clinical signs related to treatment | coagulation times ([2]; dog, in vivo): unaffected by treatment | electrocardiogram wave forms ([2]; dog, in vivo): unaffected by treatment | food consumption ([2]; dog, in vivo): no changes noted in food consumption that were considered to be treatment-related | hematology ([2]; dog, in vivo): no changes noted in hematology parameters that were considered to be treatment-related | macroscopic findings ([2]; dog, in vivo): no macroscopic findings that were considered to be test article related | microscopic findings ([2]; dog, in vivo): no evidence of test article-related histopathological finding | ophthalmology ([2]; dog, in vivo): no ocular changes noted that were considered to be treatment-related | organ weights ([2]; dog, in vivo): slight increase in spleen weight | respiratory parameters (respiratory rate, tidal volume and minute volume) ([2]; dog, in vivo): no changes in respiratory parameters evaluated | urinalysis ([2]; dog, in vivo): no changes in any of the urinalysis parameters evaluated that were considered affected by treatment | adverse effects ([2]; dog, in vivo, 1.34 mg/kg/day): no adverse effects were observed | mortality ([2]; dogs, 28 days inhalation): no premature deaths
